Reference: US12691112B2, “FGFR tyrosine kinase inhibitors for the treatment of urothelial carcinoma” (Janssen Pharmaceutica NV, priority 2019, dated 2026)

Columns and labels:
[1] = 10 patients, nine with disease progression on prior immunotherapy; cited from earlier work
urothelial cancer = assay: Best response to prior chemotherapy before study enrolment, per investigator assessment; type: in vivo, human; settings: first-line chemotherapy before study enrolment; across all regimens
From the text: Across all regimens, 184 patients had received first-line platinum-based chemotherapy, 83 had received second-line chemotherapy, and 24 had received third-line chemotherapy before study enrolment.

Molecule | patients who responded [1] [%] | best ORR per investigator assessment (urothelial cancer) [%]
COCc1c(-c2cc3cc(C)cc(OC)c3s2)c2c(N)ncnn2c1CN1CCNC(=O)C1 [rogaratinib] | 30 | –
gemcitabine plus cisplatin | – | 35
